Test results as given in PubChem BioAssay AID652194 (Johns Hopkins Ion Channel Center, 2013).
Active and inactive are the calls of the source.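 The calls were made as follows: active = hERG flux cut by over 30% at some tested dose, with a fitted dose response curve; inactive = no hERG inhibition at any dose or no curve.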

molecular target: Voltage-gated inwardly rectifying potassium channel KCNH2 (Homo sapiens) (UniProt Q12809); experiment: hERG channel inhibition in selectivity testing, SAR follow-up, selectivity assay for TASK1 inhibitor project, FluxOR thallium flux, concentration-response, CHO cells (AID 652194); conditions: hERG-expressing cells, FluxOR thallium flux fluorescence
Sequence (Q12809 whole entry, looked up): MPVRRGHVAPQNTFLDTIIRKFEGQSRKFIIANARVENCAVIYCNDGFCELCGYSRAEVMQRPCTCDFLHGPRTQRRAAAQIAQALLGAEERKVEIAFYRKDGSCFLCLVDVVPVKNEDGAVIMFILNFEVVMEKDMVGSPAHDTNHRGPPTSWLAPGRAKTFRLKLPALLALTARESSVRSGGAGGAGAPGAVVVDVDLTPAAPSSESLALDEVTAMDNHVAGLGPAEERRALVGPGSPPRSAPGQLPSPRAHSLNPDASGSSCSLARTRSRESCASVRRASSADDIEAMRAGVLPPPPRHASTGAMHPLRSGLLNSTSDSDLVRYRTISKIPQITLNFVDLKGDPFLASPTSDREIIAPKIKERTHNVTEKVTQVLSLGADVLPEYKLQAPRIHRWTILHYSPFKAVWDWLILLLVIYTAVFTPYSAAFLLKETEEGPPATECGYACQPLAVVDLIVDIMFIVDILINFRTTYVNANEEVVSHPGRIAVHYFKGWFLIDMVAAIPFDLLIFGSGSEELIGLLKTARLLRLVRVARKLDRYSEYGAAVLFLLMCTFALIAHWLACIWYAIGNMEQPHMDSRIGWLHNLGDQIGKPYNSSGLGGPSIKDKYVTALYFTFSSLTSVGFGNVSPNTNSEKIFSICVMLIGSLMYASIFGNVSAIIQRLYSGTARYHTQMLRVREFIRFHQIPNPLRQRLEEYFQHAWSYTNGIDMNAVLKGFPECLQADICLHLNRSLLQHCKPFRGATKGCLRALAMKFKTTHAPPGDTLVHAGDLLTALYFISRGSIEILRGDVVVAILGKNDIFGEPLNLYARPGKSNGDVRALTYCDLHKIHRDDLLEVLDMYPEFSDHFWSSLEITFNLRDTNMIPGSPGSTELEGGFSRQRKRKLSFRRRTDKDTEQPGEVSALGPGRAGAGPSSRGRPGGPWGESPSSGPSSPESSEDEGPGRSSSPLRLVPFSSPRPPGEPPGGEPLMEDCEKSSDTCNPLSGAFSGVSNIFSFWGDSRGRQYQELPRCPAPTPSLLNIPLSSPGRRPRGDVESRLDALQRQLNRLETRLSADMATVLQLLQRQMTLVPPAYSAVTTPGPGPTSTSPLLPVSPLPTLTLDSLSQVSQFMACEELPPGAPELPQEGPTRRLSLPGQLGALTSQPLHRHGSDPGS

Row | SMILES | IC50
1 | Cc1cccc(C(=O)Nc2cccc(NC(=O)c3cccc(C)c3)c2)c1 | 12.4 µM

same assay, conditions: hERG-expressing cells, FluxOR thallium flux fluorescence; at 30 µM (top of the series)

Row | SMILES | flux ratio, lower = inhibition
2 | Cc1cccc(C(=O)Nc2cccc(NC(=O)c3ccccc3C(F)(F)F)c2)c1 | inactive
3 | COc1cccc(OC)c1C(=O)Nc1cccc(NC(=O)c2cccc(C)c2)c1 | inactive
4 | CCOc1ccccc1NC(=O)c1cccc(NC(=O)c2cccc(Cl)c2)c1 | inactive
5 | CCOc1ccccc1NC(=O)c1cccc(NC(=O)c2ccccc2OC(F)(F)F)c1 | inactive
6 | Cc1cccc(C(=O)Nc2cccc(NC(=O)c3ccccc3C(C)C)c2)c1 | inactive
7 | COc1c(F)cccc1C(=O)Nc1cccc(NC(=O)c2cccc(C)c2)c1 | inactive
8 | Cc1cccc(C(=O)Nc2cccc(NC(=O)c3ccco3)c2)c1 | inactive
9 | CCOc1ccccc1NC(=O)c1cccc(NC(=O)c2ccccc2)c1 | inactive
10 | Cc1cccc(C(=O)Nc2cccc(NC(=O)c3ccccc3OCC(C)C)c2)c1 | inactive
11 | COc1ccc(F)cc1C(=O)Nc1cccc(NC(=O)c2cccc(C)c2)c1 | inactive
12 | COc1ccccc1NC(=O)c1cccc(NC(=O)CC2CCCC2)c1 | inactive
13 | O=C(Nc1cccc(NC(=O)c2ccccc2C(F)(F)F)c1)c1ccccc1 | inactive
14 | Cc1cccc(C(=O)Nc2cccc(NC(=O)c3ccc(C(F)(F)F)cc3)c2)c1 | inactive
15 | CCOc1ccccc1NC(=O)c1cccc(C(=O)NC2CCCC2)c1 | inactive
16 | Cc1cccc(C(=O)Nc2ccccc2NC(=O)c2ccccc2)c1 | inactive
17 | Cc1ccccc1C(=O)Nc1cccc(NC(=O)c2ccccc2)c1 | inactive
18 | CCOc1ccccc1NC(=O)c1cccc(NC(=O)C2CCCO2)c1 (stereo not given) | inactive
19 | Cc1cccc(C(=O)Nc2cccc(NC(=O)c3ccc(Cl)cc3)c2)c1 | inactive
20 | CCOc1ccccc1NC(=O)c1cccc(NC(=O)c2ccccc2OC)c1 | inactive
21 | CC(C)(C)c1ccc(C(=O)Nc2cccc(NC(=O)c3ccccc3)c2)cc1 | inactive
22 | CCOc1ccccc1NC(=O)c1cccc(NC(=O)C2CCOC2)c1 (stereo not given) | inactive
23 | O=C(Nc1cccc(NC(=O)c2cccc(F)c2)c1)c1ccccc1 | inactive
24 | CCOc1ccccc1NC(=O)c1cccc(NC(=O)c2ccc(OC)cc2)c1 | inactive
25 | COc1ccccc1C(=O)Nc1cccc(NC(=O)c2cccc(C)c2)c1 | inactive

Row | SMILES | flux ratio, lower = inhibition
26 | COc1cnccc1C(=O)Nc1cccc(NC(=O)c2cccc(C)c2)c1 | inactive
27 | CCOc1ccccc1NC(=O)c1cccc(NC(=O)c2ccccc2C)c1 | inactive
28 | O=C(Nc1cccc(NC(=O)c2cccnc2)c1)c1ccccc1 | inactive
29 | Cc1cccc(C(=O)Nc2cccc(C(=O)Nc3ccccc3)c2)c1 | inactive
30 | O=C(Nc1cccc(NC(=O)c2ccccn2)c1)c1ccccc1 | inactive
31 | Cc1cccc(C(=O)Nc2cccc(NC(=O)c3ccccc3)c2)c1 | inactive
32 | Cc1cccc(C(=O)Nc2cccc(NC(=O)c3ccc(N(C)C)cc3)c2)c1 | inactive
33 | Cc1cccc(C(=O)Nc2cccc(NC(=O)c3ccccc3C)c2)c1 | inactive
34 | CCOc1ccccc1NC(=O)c1cccc(NC(=O)c2cccc(OC)c2)c1 | inactive
35 | Cc1cccc(C(=O)Nc2cccc(NC(=O)c3cccc(C(F)(F)F)c3)c2)c1 | inactive
36 | CCOc1ccccc1C(=O)Nc1cccc(NC(=O)c2cccc(C)c2)c1 | inactive
37 | CCOc1ccccc1NC(=O)c1cccc(NC(=O)CC2CCCCC2)c1 | inactive
38 | Cc1cccc(C(=O)Nc2cccc(NC(=O)c3ccncc3)c2)c1 | inactive
39 | O=C(Nc1cccc(NC(=O)c2ccccc2)c1)c1ccccc1 | inactive
40 | COc1ccccc1NC(=O)c1cccc(NC(=O)c2ccccc2OC)c1 | inactive
41 | CCOc1ccccc1NC(=O)c1cccc(NC(=O)C(C)(C)C)c1 | inactive
42 | CCOc1ccccc1NC(=O)c1cccc(NC(=O)c2cccc(C)c2)c1 | inactive
43 | COc1ccccc1C(=O)Nc1cccc(NC(=O)c2ccccc2OC)c1 | inactive
44 | Cc1cccc(C(=O)Nc2cccc(NC(=O)c3ccccc3OC(F)(F)F)c2)c1 | inactive
45 | CCOc1ccccc1NC(=O)c1cccc(NC(=O)c2ccc(Cl)cc2)c1 | inactive
46 | CCOc1ccccc1NC(=O)c1cccc(NC(=O)C2CCCC2)c1 | inactive
47 | O=C(Nc1cccc(NC(=O)c2ccoc2)c1)c1ccccc1 | inactive
48 | O=C(Nc1cccc(NC(=O)c2cccc(C(F)(F)F)c2)c1)c1ccccc1 | inactive
49 | CCOc1ccc(NC(=O)c2cccc(NC(=O)C3CCCC3)c2)cc1 | inactive

Row | SMILES | flux ratio, lower = inhibition
50 | CCOc1ccccc1C(=O)Nc1cccc(NC(=O)c2ccccc2OC)c1 | inactive
51 | O=C(Nc1cccc(NC(=O)C2CCCCC2)c1)c1ccccc1 | inactive
52 | COc1ccccc1NC(=O)c1cccc(NC(=O)c2ccccc2C(F)(F)F)c1 | inactive
53 | CCOc1ccccc1C(=O)Nc1cccc(NC(=O)c2ccccc2C(F)(F)F)c1 | inactive
54 | COc1ccccc1NC(=O)c1cccc(NC(=O)C2CCCCC2)c1 | inactive
55 | Cc1cccc(C(=O)Nc2cccc(NC(=O)c3cccs3)c2)c1 | inactive
56 | CN(C)c1ccc(C(=O)Nc2cccc(NC(=O)c3ccccc3)c2)cc1 | inactive
57 | CCOc1ccccc1NC(=O)c1cccc(NC(=O)c2ccc(C)cc2)c1 | inactive
58 | CCOc1ccccc1NC(=O)c1cccc(NC(=O)C2CC2)c1 | inactive
59 | CC(C)c1ccccc1C(=O)Nc1cccc(NC(=O)c2ccccc2OC(F)(F)F)c1 | inactive
60 | COc1ccccc1C(=O)Nc1cc(NC(=O)c2ccccc2C(C)C)ccc1F | inactive
61 | O=C(Nc1cccc(NC(=O)c2ccsc2)c1)c1ccccc1 | inactive
62 | O=C(Nc1cccc(NC(=O)c2ccc(Cl)cc2)c1)c1ccccc1 | inactive
63 | O=C(Nc1cccc(NC(=O)c2cccc(Cl)c2)c1)c1ccccc1 | inactive
64 | Cc1cccc(C(=O)Nc2ccccc2C(=O)Nc2ccccc2)c1 | inactive
65 | O=C(Nc1cccc(NC(=O)c2ccncc2)c1)c1ccccc1 | inactive
66 | CCOc1ccccc1NC(=O)c1cccc(NC(=O)c2ccc(C(F)(F)F)cc2)c1 | inactive
67 | Cc1cccc(NC(=O)c2ccccc2NC(=O)c2ccccc2)c1 | inactive
68 | COc1ccccc1C(=O)Nc1cccc(NC(=O)c2ccccc2C(C)C)c1 | inactive
69 | CCOc1ccccc1NC(=O)c1cccc(NC(=O)C2CCCCC2)c1 | inactive
70 | CCOc1ccccc1NC(=O)c1cccc(NC(=O)c2ccccc2C(F)(F)F)c1 | inactive
71 | Cc1cccc(C(=O)Nc2cccc(NC(=O)C3CCCCC3)c2)c1 | inactive
72 | COc1ccccc1C(=O)Nc1cccc(NC(=O)c2ccccc2OC(F)(F)F)c1 | inactive
73 | O=C(Nc1cccc(NC(=O)c2cccs2)c1)c1ccccc1 | inactive

Row | SMILES | flux ratio, lower = inhibition
74 | Cc1ccc(C(=O)Nc2cccc(NC(=O)c3ccccc3)c2)cc1 | inactive
75 | CCOc1ccccc1NC(=O)c1cccc(NC(=O)c2cccc(C(F)(F)F)c2)c1 | inactive
76 | COc1ccccc1C(=O)Nc1cccc(NC(=O)c2ccccc2C)c1 | inactive
77 | CCOc1ccccc1C(=O)Nc1cccc(NC(=O)C2CCCC2)c1 | inactive
78 | Cc1cccc(C(=O)Nc2cccc(NC(=O)c3ccccc3Cl)c2)c1 | inactive
79 | O=C(Nc1cccc(NC(=O)c2ccco2)c1)c1ccccc1 | inactive
80 | O=C(Nc1ccccc1Cl)c1cccc(NC(=O)C2CCCC2)c1 | inactive
81 | CCOc1ccccc1NC(=O)c1cccc(NC(=O)CC2CCCC2)c1 | inactive
82 | COc1ccccc1NC(=O)c1cccc(NC(=O)c2ccccc2)c1 | inactive
83 | O=C(Nc1cccc(NC(=O)c2ccc(C(F)(F)F)cc2)c1)c1ccccc1 | inactive
84 | Cc1cccc(C(=O)Nc2cccc(NC(=O)c3cccc(F)c3)c2)c1 | inactive
85 | O=C(Nc1cccc(NC(=O)c2ccccc2Cl)c1)c1ccccc1 | inactive
86 | COc1ccccc1C(=O)Nc1cccc(NC(=O)c2cccc3ccccc23)c1 | inactive
87 | COc1ccc(C(=O)Nc2cccc(NC(=O)c3cccc(C)c3)c2)cc1 | inactive
88 | COc1cccc(C(=O)Nc2cccc(NC(=O)c3cccc(C)c3)c2)c1 | inactive
89 | CCOc1ccccc1NC(=O)c1cccc(NC(=O)c2ccccc2Cl)c1 | inactive
90 | COc1cccc(C(=O)Nc2cccc(NC(=O)c3ccccc3)c2)c1 | inactive
91 | COc1ccccc1C(=O)Nc1cc(NC(=O)c2cccc(C)c2)ccc1F | inactive
92 | CC(C)Oc1ccccc1C(=O)Nc1cccc(NC(=O)c2ccccc2OC(F)(F)F)c1 | inactive
93 | Cc1cccc(S(=O)(=O)Nc2cccc(NC(=O)c3ccccc3)c2)c1 | inactive
94 | Cc1cccc(NC(=O)c2cccc(NC(=O)c3ccccc3)c2)c1 | inactive
95 | COc1ccc(C(=O)Nc2cccc(NC(=O)c3ccccc3)c2)cc1 | inactive
